# Tests used:
# [1] = test system: Eker rat leiomyoma tumor-derived cells (Elt3); assay: Proliferation of Eker rat leiomyoma tumor-derived cells (Elt3), CellTiter-Glo viability assay; assay type: cell-based; conditions: for proliferation of Eker rat myoma cell line (Elt3): different concentrations, 7 days incubation, FIG. 1 and FIG. 2, range comparable to estradiol
# Method: Elt3 cells were obtained from Cheryl Walker (University of Texas). In comparison to other cells, Elt3 cells were characterized to be tumorigenic in nude mice (C. Walker, Recent Prog. Horm. Res., January 2002; 57: 277). Elt3 cells were grown to confluence in T-75 flasks with DMEM containing 10% FCS at 37° C. and 5% CO2. The medium was changed into 1% CCS for 24 h. 1000 cells were seeded in 96-well-plates for 24 hours. Elt3 cells were incubated with test compounds for 7 days. The CellTiter-Glo® Luminescent Cell Viability Assay (Promega) was used for determination of the number of viable cells in culture based on quantitation of the ATP present, an indicator of metabolically active cells.
# Elt3 cells were obtained and grown to confluence and were seeded as described above. Elt3 cells were incubated with test compounds for 7 days. The CellTiter-Glo® Luminescent Cell Viability Assay (Promega) was used for determination of the number of viable cells in culture based on quantitation of the ATP present, an indicator of metabolically active cells.
# [2] = test system: human uterine leiomyoma xenografts; assay: Xenograft of human uterine leiomyoma in immunodeficient mice, graft weight; assay type: in vivo; conditions: 60 d, SCID mice with E2 and P pellets, p<0.05
# Method: Human uterine leiomyoma (UL) tissue was derived from any form of surgical intervention indicated for the respective diagnosis, either by hysterectomy with subsequent preparation of the tissues or by myomenucleation with or without morcellation for removal of the tissue from the abdominal cavity. Immediately after the surgery the UL tissue was placed into an appropriate sterile buffer (Vitron V7 buffer (U.S. Pat. No. 5,328,821) or Viaspan buffer for organ transplantation) at 4° C. for transport from the clinic. Under a sterile workbench, the UL tissue was cut into small pieces of 2×2×2 mm while keeping the tissue constantly moist. The small pieces of tissue were placed in tissue wells with PBS at room temperature for xenotransplantation. (M Fritsch et al. 2010, ISGE abstract & presentation). […] Therefore, graft weight was taken as a primary read-out parameter for growth of UL tissue (FIGS. 5 and 6). […]
# (§1) Experiment 2 (the Thioxoimidazolidine Derivative as Androgen Receptor Antagonist)—FIGS. 6 and 7 • Human myoma tissue from two different patients was grafted s.c. in SCID mice; and the mice were treated as described in method above. […] BrdU positive nuclei were visualized by immunohistochemical staining in formalin-fixed graft sections, pictures were taken, and BrdU-positive nuclei per area were counted using the MIRAX Histoquant software (3DHISTECH Ltd, Budapest, Hungary). […]
# primary myoma cells = assay: Proliferation of primary myoma cells, CellTiter-Glo viability assay; assay type: cell-based, human; conditions: 10^−6 M, 7 days; p<0.05 vs. DMSO; FIG. 3; range comparable to estradiol
# [3] = test system: human uterine leiomyoma xenografts; assay: Human xenograft cell proliferation (BrdU positive nuclei) in immunodeficient mice; assay type: in vivo; conditions: last week of Experiment 2, 15 mg/kg/d p.o. daily; two donors; FIG. 7
# Method: Human uterine leiomyoma (UL) tissue was derived from any form of surgical intervention indicated for the respective diagnosis, either by hysterectomy with subsequent preparation of the tissues or by myomenucleation with or without morcellation for removal of the tissue from the abdominal cavity. Immediately after the surgery the UL tissue was placed into an appropriate sterile buffer (Vitron V7 buffer (U.S. Pat. No. 5,328,821) or Viaspan buffer for organ transplantation) at 4° C. for transport from the clinic. Under a sterile workbench, the UL tissue was cut into small pieces of 2×2×2 mm while keeping the tissue constantly moist. The small pieces of tissue were placed in tissue wells with PBS at room temperature for xenotransplantation. (M Fritsch et al. 2010, ISGE abstract & presentation). […] Therefore, graft weight was taken as a primary read-out parameter for growth of UL tissue (FIGS. 5 and 6).
# as §1
smiles,measurement,setting,value
"CC(O)(CS(=O)(=O)c1ccc(F)cc1)C(=O)Nc1ccc(C#N)c(C(F)(F)F)c1 (stereo not drawn) [bicalutamide, N-[4-cyano-3-(trifluoromethyl)phenyl]-3-[(4-fluorophenyl)sulfonyl]-2-hydroxy-2-methylpropanamide]",effect on DHT-induced proliferation of Elt3 cells,"[1]; 10^−7 M bicalutamide with 10^−9 M DHT, p<0.05 vs. DHT, FIG. 4",abolished
same,graft weight reduction vs. respective controls,"[2]; Experiment 1: 15 mg/kg/d p.o. every 2nd day, tissue from three patients, FIG. 5",> 30%
"C[C@]12CCC(=O)C[C@@H]1CC[C@@H]1[C@@H]2CC[C@]2(C)[C@@H](O)CC[C@@H]12 [dihydrotestosterone, 5α-dihydrotestosterone]",proliferation of Elt3 cells,"[1]; 10^−9 M DHT, 7 days, p<0.05 vs. DMSO, FIG. 4",significantly increased
same,proliferation of Eker rat myoma cell line (Elt3),[1],dose-dependent increase of proliferation
same,proliferation of primary myoma cells,primary myoma cells,significantly induce an increase of proliferation
C[C@]12CC[C@H]3[C@@H](CCC4=CC(=O)CC[C@@]43C)[C@@H]1CC[C@@H]2O [testosterone],proliferation of Eker rat myoma cell line (Elt3),[1],dose-dependent increase of proliferation
same,proliferation of primary myoma cells,primary myoma cells,significantly induce an increase of proliferation
"CC(C)(O)COc1ccc(CN2C(=S)N(c3ccc(C#N)c(C(F)(F)F)c3)C(=O)C2(C)C)cn1 [thioxoimidazolidine derivative, 4-(3-{[6-(2-hydroxy-2-methylpropoxy)pyridin-3-yl]methyl}-4,4-dimethyl-5-oxo-2-thioxoimidazolidin-1-yl)-2-(trifluoromethyl)benzonitrile]",proliferation of grafts (BrdU-positive nuclei per area),[3],clearly reduced
same,graft weight reduction vs. respective controls,"[2]; Experiment 2: 15 mg/kg/d p.o. daily, tissue from two patients, FIG. 6",> 50%
